Like-named read-outs stand apart in the source and are kept apart here.
Legend:
[1] = PK parameters in preclinical species; type: in vivo; details: Monkey
[2] = system: SJSA-1 (p53WT and HDM2-amplified); assay: Cell proliferation assay (YOPRO); type: cell-based; details: Homo sapiens, SJSA-1, read-out: SJSA-1 GI50
Description: (§1) Figure 1. […] (^d) Selectivity is determined by the ratio of GI50 obtained using SAOS-2 (p53-null) and SJSA-1 (p53^WT and HDM2-amplified) osteosarcoma pair of cell lines. […] The data used to generate these plots, as well as cell line identity is available in Figure 1—source data 1. […] The blue color indicates the reverse profile. Brighter colors indicate which target classes pass the 0.25 FDR cut-off.
(§2) All other cell lines were obtained from ATCC (American Type Culture Collection), DSMZ (Deutsche Sammlung von Mikroorganismen und Zellkulturen), and HSRRB (Health Science Research Resources Bank) and cultured in RPMI or Dulbecco's modified Eagle's medium plus 10% FBS (Invitrogen, Carlsbad, CA) at 37°C, 5% CO2.

HCT-116 p53WT = assay: Cell proliferation assay (YOPRO); type: cell-based; details: Homo sapiens, HCT-116, read-out: HCT-116 p53WT GI50
Description: as §1, §2

SAOS-2 (p53-null) = assay: Cell proliferation assay (YOPRO); type: cell-based; details: Homo sapiens
Description: as §1, §2

HCT-116 p53-null = assay: Cell proliferation assay (YOPRO); type: cell-based; details: Homo sapiens, HCT116-p53-null
Description: as §1, §2

[3] = PK parameters in preclinical species; type: in vivo; details: Mouse
[4] = PK parameters in preclinical species; type: in vivo; details: Rat
P12-ICHIKAWA = assay: Repeat cell proliferation assay; type: cell-based; details: Homo sapiens, P12-[…] (TP53 mutated)
Description: (§3) Cell lines were partitioned into sensitive and insensitive groups based on compound potency (IC50). […] Forty seven cell lines were categorized as sensitive and 309 cell lines as insensitive. For the sensitive cell lines, the maximal compound effect level (Amax) was ≤ −50% (Figure 1C,D, Figure 1—source data 1).

Hs 294T = assay: Repeat cell proliferation assay; type: cell-based; details: Homo sapiens, Hs 294T (TP53 mutated)
Description: as §3

KBMC-2 = assay: Repeat cell proliferation assay; type: cell-based; details: Homo sapiens, KBMC-2 (TP53 mutated)
Description: as §3

[5] = PK parameters in preclinical species; type: in vivo; details: Dog
[6] = single dose 0.1 mg/kg i.v. or 0.3 mg/kg p.o.
[7] = in vivo, iv, 0.1 mg/kg i.v., dose-normalized to 1 mg/kg, read-out: AUCinf i.v.
[8] = in vivo, iv, single dose 0.1 mg/kg i.v. or 0.3 mg/kg p.o.
[9] = in vivo, iv, single dose 0.1 mg/kg i.v. or 0.3 mg/kg p.o., read-out: Vss
[10] = in vivo, po, 0.3 mg/kg p.o., dose-normalized to 1 mg/kg
[11] = in vivo, po, 0.3 mg/kg p.o., dose-normalized to 1 mg/kg, read-out: AUCinf p.o.
[12] = single dose 1 mg/kg i.v. or 3 mg/kg p.o.
[13] = in vivo, iv, 1 mg/kg i.v., dose-normalized to 1 mg/kg, read-out: AUCinf i.v.
[14] = in vivo, iv, single dose 1 mg/kg i.v. or 3 mg/kg p.o.
[15] = in vivo, iv, single dose 1 mg/kg i.v. or 3 mg/kg p.o., read-out: Vss
[16] = in vivo, po, 3 mg/kg p.o., dose-normalized to 1 mg/kg
[17] = in vivo, po, 3 mg/kg p.o., dose-normalized to 1 mg/kg, read-out: AUCinf p.o.

For `COc1cc2c(cc1OC(C)C)[C@H](c1ccc(Cl)cc1)N(c1ccc(N(C)C[C@H]3CC[C@H](N4CCNC(=O)C4)CC3)cc1)C(=O)C2` [NVP-CFC218], the “Oral BA” value ([1]; 0.1 mg/kg i.v., 0.3 mg/kg p.o.) was 14 ± 2 %F, the t1/2app. [1, 6] was 2.6 ± 0.3 h and the AUC(0-inf) [1, 7] was 2.37 ± 0.31 µM·h. For the same molecule, the clearance [1, 8] was 11 ± 2 mL/min/kg, the Vd [1, 9] was 2.1 ± 0.3 L/kg and the Tmax ([1]; in vivo, po, 0.3 mg/kg p.o.) was 1 ± 0.1 h. For the same molecule, the Cmax [1, 10] was 77 ± 14 nM, the AUC(0-inf) [1, 11] was 0.34 ± 0.05 µM·h and the GI50 [2] was 0.353 ± 0.172 µM. For the same molecule, the GI50 (HCT-116 p53WT) was 0.473 ± 0.1 µM, the GI50 (SAOS-2 (p53-null); SAOS-2, mean ± SD, n ≥ 8) was 19.8 µM and the IC50 (SAOS-2 (p53-null); SAOS-2 p53 null cells remained insensitive) was at least 10 µM. For the same molecule, the IC50 (HCT-116 p53-null; HCT-116 p53-null cells remained insensitive) was at least 10 µM, the GI50 (HCT-116 p53-null; mean ± SD, n ≥ 8) was 15.9 µM and the “Oral BA” value ([3]; 1 mg/kg i.v., 3 mg/kg p.o.) was 43 %F. For the same molecule, the t1/2app. [3, 12] was 3.6 h, the AUC(0-inf) [3, 13] was 2.8 µM·h and the clearance [3, 14] was 9 mL/min/kg. The Vd [3, 15] was 3.1 L/kg, the Tmax ([3]; in vivo, po, 3 mg/kg p.o.) was 2 h and the Cmax [3, 16] was 94 nM. For the same molecule, the AUC(0-inf) [3, 17] was 1.2 µM·h, the “Oral BA” value ([4]; 1 mg/kg i.v., 3 mg/kg p.o.) was 49 ± 15 %F and the t1/2app. [4, 12] was 9.3 ± 1.9 h. It also gave an AUC(0-inf) [4, 13] of 2.21 ± 0.21 µM·h, a clearance [4, 14] of 12 ± 1 mL/min/kg and a Vd [4, 15] of 8 ± 1.8 L/kg. The Tmax ([4]; in vivo, po, 3 mg/kg p.o.) was 4 ± 1.4 h, the Cmax [4, 16] was 75 ± 23 nM and the AUC(0-inf) [4, 17] was 1.07 ± 0.34 µM·h. The IC50 (P12-ICHIKAWA) was over 8 µM, the IC50 (Hs 294T) was over 8 µM and the IC50 (KBMC-2) was over 8 µM. For the same molecule, the “Oral BA” value ([5]; 0.1 mg/kg i.v., 0.3 mg/kg p.o.) was 71 ± 8 %F, the t1/2app. [5, 6] was 14.4 ± 0.7 h and the AUC(0-inf) [5, 7] was 8.08 ± 1.68 µM·h. The clearance [5, 8] was 3 ± 1 mL/min/kg, the Vd [5, 9] was 3.6 ± 0.5 L/kg and the Tmax ([5]; in vivo, po, 0.3 mg/kg p.o.) was 3.3 ± 1.2 h. For the same molecule, the Cmax [5, 10] was 240 ± 43 nM and the AUC(0-inf) [5, 11] was 5.74 ± 0.68 µM·h.
